Measurements reported in publication PMC11353420, “Anti-Inflammatory, Cytotoxic, and Genotoxic Effects of Soybean Oligopeptides Conjugated with Mannose” (Foods, 2024).

Legend:
[1] = SRB cytotoxicity assay, RAW 264.7; conditions: mouse
Method: (§1) The cells were maintained in a 5% CO2 humidified atmosphere (CO2 incubator, Thermo Scientific, Waltham, MA, USA) at 37 °C and sub-cultured every 3 days.
(§2) The cytotoxicity of the oligopeptide and its conjugated forms on HepG2, HEK293, LX-2, and RAW 264.7 cells, pre- and mature 3T3-L1 adipocytes, and hPBMCs was analyzed by a sulforhodamine (SRB) assay to obtain their non-toxic concentration for further experiments and as screening data for their in vitro safety. The cells were plated for 12 h in 96-well plates and then treated with the oligopeptide and its conjugated sugar at a concentration of 0–1000 µg/mL for 48 h. Dimethyl sulfoxide (DMSO) was used as a vehicle control (the untreated control). At the indicated time, the cells were then fixed and subjected to an SRB assay. The absorbance was measured at 510 nm by spectrophotometry (Gen5, BioTek, Winooski, VT, USA), and the cell viability was calculated as the ratio of the treatment versus untreated control. The data are represented as the mean ± standard deviation of three replicates and are expressed relative to the untreated control. The percentage of cell survival was calculated as follows:% cell survival = (Abs_extract/Abs_control) × 100

[2] = system: RAW 264.7 murine macrophage cell line; test: SRB cytotoxicity assay, RAW 264.7; conditions: Mus musculus, RAW264.7, 48 h
Method: as §1, §2

iNOS = iNOS protein level by immunoblotting in LPS-treated RAW 264.7; type: cell-based, murine; conditions: 100, 200, 400 µg/mL, LPS 1 µg/mL 24 h
Method: (§3) RAW 264.7 macrophage cells were pretreated with various concentrations of the oligopeptide and its conjugated forms (100, 200, 400 µg/mL) for an hour and then incubated with LPS (1 µg/mL) for a further 24 h (at 37 °C in a 5% CO2 humidified atmosphere). The cells were then collected to investigate the iNOS and COX-2 protein levels. Cell lysate was prepared to obtain the protein samples. The samples were subjected to 10% sodium dodecyl sulfate polyacrylamide gel electrophoresis (SDS-PAGE). The separated proteins were electrically transferred to a nitrocellulose membrane. The target proteins were probed with specific antibodies, including anti-COX-2 antibody (Cell signaling, Danvers, MA, USA), anti-iNOS antibody (Merck, Rahway, NJ, USA), and anti-β-actin antibody (Sigma, St. Louis, MO, USA). Protein detection was performed using a chemiluminescence reagent (Bio-Rad Laboratories, Watford, UK).

COX-2 = COX-2 protein level by immunoblotting in LPS-treated RAW 264.7; type: cell-based, murine; conditions: 100, 200, 400 µg/mL, LPS 1 µg/mL 24 h
Method: as §3

IL-6 = IL-6 secretion by ELISA in LPS-treated RAW 264.7; type: cell-based, murine; conditions: 100, 200, 400 µg/mL, LPS 1 µg/mL 24 h
Method: RAW 264.7 macrophage cells were pretreated with various concentrations of the oligopeptide and its conjugated forms (100, 200, 400 µg/mL) for an hour and then incubated with LPS (1 µg/mL) for further 24 h at 37 °C in a 5% CO2 humidified atmosphere. Then, a sandwich Enzyme Link Immuno-Sorbent Assay was carried out in accordance with the manufacturer’s protocols (BioLegend ELISA MAXTM Deluxe Set, San Diego, CA, USA) to measure TNF-α or IL-6 protein levels in the condition medium.

OC[C@H]1OC(O)[C@@H](O)[C@@H](O)[C@@H]1O (stereo partly drawn) [Man, D-mannose]
IC20 at 48 h [1]: > 1000 µg/mL | IC50 [2]: > 1000 µg/mL | effect on iNOS protein level (iNOS): did not affect | effect on COX-2 protein level (COX-2): did not affect | effect on level of IL-6 (IL-6): did not alter
